System: Desulfovibrio longus ATCC 51456
Assay: Biocidal efficacy (bacterial kill) and synergy of glutaraldehyde and surfactants against anaerobic sulfate-reducing bacteria
Type: cell-based
Settings: 35° C., 10^6 to 10^7 CFU/mL, salt solution
Protocol: Surfactants and biocides were evaluated for synergy by determining the synergy index (S.I.) of the combination. Synergy index was calculated based on the concentration required to achieve a certain level of bacterial kill when the two antimicrobial compounds (A and B) alone and in combinations. The test organism was anaerobic sulfate-reducing bacteria Desulfovibrio longus ATCC #51456. Surf. A R^1O(CH2CH(CH3)O)5(CH2CH2O)6H Surf. B R^1O(CH2CH(CH3)O)5(CH2CH2O)9H where R^1 is 2-ethylhexyl.
Inside an anaerobic chamber (Bactron anaerobic chamber), a deoxygenated sterile salt solution (3.1183 g of NaCl, 1.3082 mg of NaHCO3, 47.70 mg of KCl, 72.00 mg of CaCl2, 54.49 mg of MgSO4, 172.28 mg of Na2SO4, 43.92 mg of Na2CO3 in 1 L water) was inoculated with Desulfovibrio longus ATCC 51456 to a final bacterial concentration of 10^6 to 10^7 CFU/mL. Aliquots of this cell suspension were then treated with glutaraldehyde, and each of Surf A and B at selected active concentrations. After incubation at 35° C. for 2 hours, viable bacteria in the aliquots were enumerated using serial dilution method.
SI is calculated as follows: Ca/CA+Cb/CB=Synergy Index (“SI”)
Wherein: • Ca=Concentration of biocide A required to achieve a certain level of bacterial kill when used in combination with B • CA=Concentration of biocide A required to achieve a certain level of bacterial kill when used alone • Cb=Concentration of biocide B required to achieve a certain level of bacterial kill when used in combination with A • CB=Concentration of biocide B required to achieve a certain level of bacterial kill when used alone When the sum of Ca/CA and Cb/CB is greater than one, antagonism is indicated.

O=CCCCC=O [Glut, glutaraldehyde, (1,5-pentanedial) CAS No. 111-30-8]
Concentration (active ppm) for complete bacterial kill in 2 hours, Glut (Glut concentration alone (1:0) or in combination with Surf. A): 13.2 ppm
Concentration (active ppm) for 99.99% bacterial kill in 2 hours, Glut (Glut concentration alone (1:0) or in combination with Surf. B): 5.9 ppm

R^1O(CH2CH(CH3)O)5(CH2CH2O)6H where R^1 is 2-ethylhexyl [Surf. A]
Concentration (active ppm) for complete bacterial kill in 2 hours, Surf. A (Surf. A concentration alone (0:1) or in combination with Glut): >100 ppm

R^1O(CH2CH(CH3)O)5(CH2CH2O)9H where R^1 is 2-ethylhexyl [Surf. B]
Concentration (active ppm) for 99.99% bacterial kill in 2 hours, Surf B (Surf. B concentration alone (0:1) or in combination with Glut): >100 ppm
